Like-named read-outs stand apart in the source and are kept apart here.
Tests used:
[1] = tested on: VCaP cells; experiment: VCaP growth inhibition assay (CTG); assay type: cell-based; details: Homo sapiens, 216 h, 30 pM R1881, 9 days
Protocol: VCaP cells (ATCC Cat #CRL-2876) are plated at 1×10^4 cells per well of a white plastic 96-well cluster plate (Thermo Scientific Nunc Cat #165306) in 100 uL phenol red-free DMEM (Gibco Cat #21063-029) media with 5% CSS (Omega Scientific Cat #FB-04). Cluster plates are returned to the incubator (37*C/5% CO2) for 72 hours prior to treatment. Just prior to treatment, 100 uL of phenol red-free DMEM/5% CSS and 60 pM R1881 (Sigma Cat #R0908-10 mg) was added to each well of the cluster plates (Final R1881 concentration=30 pM). Compounds (200X) were added to each well in a volume of 1 uL, with serial dilutions (1:5) from 20 uM to 2 pM (final concentrations in well are 100 nM to 10 fM). Cluster plates are returned to the incubator for 9 days.
After the 9-day treatment period, media was removed from the cluster plates by inversion and 100 uL room temperature CTG reagent (Promega Cat #G7573) is added to each well. The cluster plates are placed on a shaker and incubated at room temperature for 20 minutes. Following this shaking/incubation, cluster plates are read on a luminometer (BMG ClarioStar). IC50 values are obtained by graphing the RLU data vs. compound concentration with nonlinear regression 4-parameter logistic curves (GraphPad Prism).

[2] = target: AR / CBP ternary complex (Homo sapiens, UniProt P10275+Q92793); experiment: Ternary complex formation assay (sandwich ELISA, AR capture, CBP antibody detection) in VCaP cell lysates; assay type: cell-based
Sequence of AR / CBP ternary complex (P10275 whole entry): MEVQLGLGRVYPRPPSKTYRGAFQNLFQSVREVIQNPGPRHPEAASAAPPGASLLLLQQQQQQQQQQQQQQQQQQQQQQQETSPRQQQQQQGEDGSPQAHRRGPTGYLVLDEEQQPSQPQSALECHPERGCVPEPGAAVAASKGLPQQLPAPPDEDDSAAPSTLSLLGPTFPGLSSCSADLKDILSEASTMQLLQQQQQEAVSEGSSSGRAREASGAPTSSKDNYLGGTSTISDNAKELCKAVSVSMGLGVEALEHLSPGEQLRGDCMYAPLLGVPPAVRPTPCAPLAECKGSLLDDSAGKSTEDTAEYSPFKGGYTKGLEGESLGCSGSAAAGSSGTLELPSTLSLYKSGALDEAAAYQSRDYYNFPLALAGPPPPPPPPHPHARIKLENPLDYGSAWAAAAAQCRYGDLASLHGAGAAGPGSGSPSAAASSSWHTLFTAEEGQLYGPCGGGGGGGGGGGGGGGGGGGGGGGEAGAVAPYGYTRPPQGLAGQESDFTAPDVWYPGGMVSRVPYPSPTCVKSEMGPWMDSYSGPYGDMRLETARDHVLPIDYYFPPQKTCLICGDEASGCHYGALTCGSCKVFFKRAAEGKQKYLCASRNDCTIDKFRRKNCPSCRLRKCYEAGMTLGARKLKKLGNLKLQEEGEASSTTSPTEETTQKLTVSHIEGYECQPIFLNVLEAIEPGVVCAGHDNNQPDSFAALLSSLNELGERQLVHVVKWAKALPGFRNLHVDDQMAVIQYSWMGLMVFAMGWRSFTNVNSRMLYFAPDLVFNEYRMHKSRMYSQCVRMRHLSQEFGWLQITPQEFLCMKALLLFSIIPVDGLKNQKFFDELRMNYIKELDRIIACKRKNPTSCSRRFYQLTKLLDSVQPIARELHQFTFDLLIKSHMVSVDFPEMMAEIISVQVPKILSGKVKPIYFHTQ
Sequence of AR / CBP ternary complex (Q92793 2-2442): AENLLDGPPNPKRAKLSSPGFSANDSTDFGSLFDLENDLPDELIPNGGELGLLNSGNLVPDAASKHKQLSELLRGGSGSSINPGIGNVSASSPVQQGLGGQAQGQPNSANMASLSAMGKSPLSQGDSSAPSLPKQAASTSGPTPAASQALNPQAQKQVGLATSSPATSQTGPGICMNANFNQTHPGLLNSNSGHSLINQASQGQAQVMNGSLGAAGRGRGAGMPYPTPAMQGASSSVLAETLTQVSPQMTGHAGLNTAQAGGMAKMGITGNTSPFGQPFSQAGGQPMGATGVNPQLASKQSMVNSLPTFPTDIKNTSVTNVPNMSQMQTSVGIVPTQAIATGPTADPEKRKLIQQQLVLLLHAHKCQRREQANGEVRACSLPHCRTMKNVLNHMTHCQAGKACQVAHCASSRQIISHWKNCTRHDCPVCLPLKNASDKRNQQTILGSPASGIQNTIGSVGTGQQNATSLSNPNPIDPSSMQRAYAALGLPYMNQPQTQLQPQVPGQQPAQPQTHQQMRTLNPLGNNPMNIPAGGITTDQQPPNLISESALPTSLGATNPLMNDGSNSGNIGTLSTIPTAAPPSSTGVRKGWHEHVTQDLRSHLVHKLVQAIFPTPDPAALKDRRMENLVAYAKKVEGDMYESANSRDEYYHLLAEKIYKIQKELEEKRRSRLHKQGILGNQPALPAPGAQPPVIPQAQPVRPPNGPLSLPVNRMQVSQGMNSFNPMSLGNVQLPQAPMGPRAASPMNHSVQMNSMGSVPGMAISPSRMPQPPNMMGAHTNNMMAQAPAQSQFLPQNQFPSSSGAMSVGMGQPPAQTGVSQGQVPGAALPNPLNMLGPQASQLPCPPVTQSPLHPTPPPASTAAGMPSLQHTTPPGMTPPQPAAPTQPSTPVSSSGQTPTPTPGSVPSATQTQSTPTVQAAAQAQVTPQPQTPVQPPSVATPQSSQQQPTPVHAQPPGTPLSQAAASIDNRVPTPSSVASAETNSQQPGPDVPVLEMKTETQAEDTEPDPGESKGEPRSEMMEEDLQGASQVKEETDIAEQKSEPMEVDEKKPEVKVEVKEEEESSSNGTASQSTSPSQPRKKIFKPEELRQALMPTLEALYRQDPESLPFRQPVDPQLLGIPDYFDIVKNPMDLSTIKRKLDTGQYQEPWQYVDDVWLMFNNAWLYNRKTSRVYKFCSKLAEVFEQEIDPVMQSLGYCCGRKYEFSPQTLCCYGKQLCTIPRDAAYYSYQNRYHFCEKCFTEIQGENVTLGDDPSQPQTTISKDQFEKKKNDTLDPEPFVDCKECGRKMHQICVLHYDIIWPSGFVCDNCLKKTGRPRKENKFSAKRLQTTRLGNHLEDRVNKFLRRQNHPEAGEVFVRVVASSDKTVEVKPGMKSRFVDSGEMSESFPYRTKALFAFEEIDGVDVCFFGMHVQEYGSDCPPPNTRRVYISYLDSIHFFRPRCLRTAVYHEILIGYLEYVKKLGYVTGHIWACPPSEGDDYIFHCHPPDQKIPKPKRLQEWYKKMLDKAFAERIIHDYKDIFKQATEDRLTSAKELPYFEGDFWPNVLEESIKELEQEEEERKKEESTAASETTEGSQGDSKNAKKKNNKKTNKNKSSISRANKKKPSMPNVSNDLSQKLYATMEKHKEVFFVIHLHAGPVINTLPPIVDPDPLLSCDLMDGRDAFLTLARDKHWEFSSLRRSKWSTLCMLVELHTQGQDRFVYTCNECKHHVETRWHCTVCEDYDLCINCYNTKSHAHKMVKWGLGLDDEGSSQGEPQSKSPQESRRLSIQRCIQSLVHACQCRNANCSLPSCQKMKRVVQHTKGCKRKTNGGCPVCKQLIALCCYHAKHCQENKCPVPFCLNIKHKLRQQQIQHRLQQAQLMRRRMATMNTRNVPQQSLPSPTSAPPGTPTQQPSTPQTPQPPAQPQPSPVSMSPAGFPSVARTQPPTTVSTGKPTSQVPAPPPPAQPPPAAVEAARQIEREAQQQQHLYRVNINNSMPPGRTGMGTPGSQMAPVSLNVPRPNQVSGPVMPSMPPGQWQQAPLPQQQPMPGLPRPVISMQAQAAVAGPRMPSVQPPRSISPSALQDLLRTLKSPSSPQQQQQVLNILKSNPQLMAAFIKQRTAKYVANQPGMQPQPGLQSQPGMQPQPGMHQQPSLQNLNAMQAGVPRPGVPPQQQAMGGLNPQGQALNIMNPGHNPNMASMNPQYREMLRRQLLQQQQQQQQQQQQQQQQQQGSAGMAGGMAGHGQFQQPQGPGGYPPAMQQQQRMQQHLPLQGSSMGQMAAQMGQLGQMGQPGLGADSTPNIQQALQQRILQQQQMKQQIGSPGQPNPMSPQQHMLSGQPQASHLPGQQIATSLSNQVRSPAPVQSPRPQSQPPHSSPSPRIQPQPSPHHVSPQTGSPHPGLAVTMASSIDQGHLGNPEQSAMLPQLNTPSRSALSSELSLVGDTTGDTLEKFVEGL
Procedure, shortened: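 VCaP cells in 5% charcoal-stripped FBS were cultured ≥3 days and then given bifunctional compound for 1.5 h. Lysates went onto AR-antibody-coated plates. Bound CBP (or p300) was detected with a rabbit antibody plus HRP anti-rabbit, using QuantaRed chemifluorescence (ex 570/em 585) read immediately, at 5 min and at 15 min.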

[3] = treated 1.5 hours, rabbit CBP or p300 antibody detection, average, read-out: Average Ternary Complex

IC50 [1] [nM] | EC50 [2, 3] [nM] | Compound | EC50 ([2]; read-out: Average Ternary Complex, treated 1.5 hours, rabbit CBP or p300 antibody detection) [nM]
≤ 0.1 | < 1 | CC(=O)N1CCc2c(c(N3CCCc4cc(-c5cnn(C)c5)c(C(F)F)cc43)nn2C2CCN(C(=O)CC3CCN(c4ccc(C(=O)N[C@H]5CC[C@H](Oc6ccc(C#N)c(Cl)c6)CC5)nn4)CC3)CC2)C1 [Compound 14, 6-[4-[2-[4-[5-acetyl-3-[7-(difluoromethyl)-6-(1-methylpyrazol-4-yl)-3,4-dihydro-2H-quinolin-1-yl]-6,7-dihydro-4H-pyrazolo[4,3-c]pyridin-1-yl]-1-piperidyl]-2-oxo-ethyl]-1-piperidyl]-N-[4-(3-chloro-4-cyano-phenoxy)cyclohexyl]pyridazine-3-carboxamide] | 
≤ 0.1 | < 1 | CC(=O)N1CCc2c(c(N3CCCc4cc(-c5cnn(C)c5)c(C(F)F)cc43)nn2C2CCN(CC3CCN(c4ccc(C(=O)N[C@H]5CC[C@H](Oc6ccc(C#N)c(Cl)c6)CC5)nn4)CC3)CC2)C1 [Compound 16, 6-[4-[[4-[5-acetyl-3-[7-(difluoromethyl)-6-(1-methylpyrazol-4-yl)-3,4-dihydro-2H-quinolin-1-yl]-6,7-dihydro-4H-pyrazolo[4,3-c]pyridin-1-yl]-1-piperidyl]methyl]-1-piperidyl]-N-[4-(3-chloro-4-cyano-phenoxy)cyclohexyl]pyridazine-3-carboxamide] | 
≤ 0.1 | < 1 | CC(=O)N1CCc2c(c(N3CCCc4cc(-c5cnn(C)c5)c(C(F)F)cc43)nn2C2CCN(CC3CCN(c4ccc(C(=O)N[C@H]5CC[C@H](Oc6ccc(C#N)c(Cl)c6)CC5)cn4)CC3)CC2)C1 [Compound 18, 6-[4-[[4-[5-acetyl-3-[7-(difluoromethyl)-6-(1-methylpyrazol-4-yl)-3,4-dihydro-2H-quinolin-1-yl]-6,7-dihydro-4H-pyrazolo[4,3-c]pyridin-1-yl]-1-piperidyl]methyl]-1-piperidyl]-N-[4-(3-chloro-4-cyano-phenoxy)cyclohexyl]pyridine-3-carboxamide] | 
≤ 0.1 | > 100 | CC(=O)N1CCc2c(c(-c3cccc4cc(-c5ccc(CC6CCN(c7ccc(C(=O)N[C@H]8CC[C@H](Oc9ccc(C#N)c(Cl)c9)CC8)nn7)CC6)nc5)ncc34)nn2C)C1 [Compound 19, 6-[4-[[5-[8-(5-acetyl-1-methyl-6,7-dihydro-4H-pyrazolo[4,3-c]pyridin-3-yl)-3-isoquinolyl]-2-pyridyl]methyl]-1-piperidyl]-N-[4-(3-chloro-4-cyano-phenoxy)cyclohexyl]pyridazine-3-carboxamide] | 
≤ 0.1 | < 1 | CC(=O)N1CCc2c(c(-c3cccc4cc(-c5ccc(CCC6CCN(c7ccc(C(=O)N[C@H]8CC[C@H](Oc9ccc(C#N)c(Cl)c9)CC8)nn7)CC6)nc5)ncc34)nn2C)C1 [Compound 20, 6-[4-[2-[5-[8-(5-acetyl-1-methyl-6,7-dihydro-4H-pyrazolo[4,3-c]pyridin-3-yl)-3-isoquinolyl]-2-pyridyl]ethyl]-1-piperidyl]-N-[4-(3-chloro-4-cyano-phenoxy)cyclohexyl]pyridazine-3-carboxamide] | 
≤ 0.1 | < 1 | CC(=O)N1CCc2c(c(-c3cccc4cc(-c5ccc(COCC6CCN(c7ccc(C(=O)N[C@H]8CC[C@H](Oc9ccc(C#N)c(Cl)c9)CC8)nn7)CC6)nc5)ncc34)nn2C)C1 [Compound 21, 6-[4-[[5-[8-(5-acetyl-1-methyl-6,7-dihydro-4H-pyrazolo[4,3-c]pyridin-3-yl)-3-isoquinolyl]-2-pyridyl]methoxymethyl]-1-piperidyl]-N-[4-(3-chloro-4-cyano-phenoxy)cyclohexyl]pyridazine-3-carboxamide] | 
≤ 0.1 | < 1 | CC(=O)N1CCc2c(c(-c3cccc4cc(-c5cnn(CC6CCN(c7ccc(C(=O)N[C@H]8CC[C@H](Oc9ccc(C#N)c(Cl)c9)CC8)nn7)CC6)c5)ncc34)nn2C2CCOCC2)C1 [Compound 22, 6-[4-[[4-[8-(5-acetyl-1-tetrahydropyran-4-yl-6,7-dihydro-4H-pyrazolo[4,3-c]pyridin-3-yl)-3-isoquinolyl]pyrazol-1-yl]methyl]-1-piperidyl]-N-[4-(3-chloro-4-cyano-phenoxy)cyclohexyl]pyridazine-3-carboxamide] | 
0.1 to 1 | < 1 | CC(=O)N1CCc2c(c(-c3cccc4cc(-c5ccc(CC6CCN(c7ccc(C(=O)N[C@H]8CC[C@H](Oc9ccc(C#N)c(Cl)c9)CC8)nn7)CC6)nc5)ncc34)nn2C2CCOCC2)C1 [Compound 23, 6-[4-[[5-[8-(5-acetyl-1-tetrahydropyran-4-yl-6,7-dihydro-4H-pyrazolo[4,3-c]pyridin-3-yl)-3-isoquinolyl]-2-pyridyl]methyl]-1-piperidyl]-N-[4-(3-chloro-4-cyano-phenoxy)cyclohexyl]pyridazine-3-carboxamide] | 
≤ 0.1 | < 1 | CC(=O)N1CCc2c(c(-c3cccc4cc(-c5ccc(CCC6CCN(c7ccc(C(=O)N[C@H]8CC[C@H](Oc9ccc(C#N)c(Cl)c9)CC8)nn7)CC6)nc5)ncc34)nn2C2CCOCC2)C1 [Compound 25, 6-[4-[2-[5-[8-(5-acetyl-1-tetrahydropyran-4-yl-6,7-dihydro-4H-pyrazolo[4,3-c]pyridin-3-yl)-3-isoquinolyl]-2-pyridyl]ethyl]-1-piperidyl]-N-[4-(3-chloro-4-cyano-phenoxy)cyclohexyl]pyridazine-3-carboxamide] | 
≤ 0.1 | < 1 | CC(=O)N1CCc2c(c(-c3cccc4cc(-c5cnn(CCOC6CCN(c7ccc(C(=O)N[C@H]8CC[C@H](Oc9ccc(C#N)c(Cl)c9)CC8)nn7)CC6)c5)ncc34)nn2C2CCOCC2)C1 [Compound 26, 6-[4-[2-[4-[8-(5-acetyl-1-tetrahydropyran-4-yl-6,7-dihydro-4H-pyrazolo[4,3-c]pyridin-3-yl)-3-isoquinolyl]pyrazol-1-yl]ethoxy]-1-piperidyl]-N-[4-(3-chloro-4-cyano-phenoxy)cyclohexyl]pyridazine-3-carboxamide] | 
0.1 to 1 | < 1 | CC(=O)N1CCc2c(c(-c3cccc4cc(-c5ccc(CCOC6CCN(c7ccc(C(=O)N[C@H]8CC[C@H](Oc9ccc(C#N)c(Cl)c9)CC8)nn7)CC6)nc5)ncc34)nn2C2CCOCC2)C1 [Compound 27, 6-[4-[2-[5-[8-(5-acetyl-1-tetrahydropyran-4-yl-6,7-dihydro-4H-pyrazolo[4,3-c]pyridin-3-yl)-3-isoquinolyl]-2-pyridyl]ethoxy]-1-piperidyl]-N-[4-(3-chloro-4-cyano-phenoxy)cyclohexyl]pyridazine-3-carboxamide] | 
≤ 0.1 | < 1 | CC(=O)N1CCc2c(c(-c3cccc4cc(-c5ccc(CCN6CCN(c7ccc(C(=O)N[C@H]8CC[C@H](Oc9ccc(C#N)c(Cl)c9)CC8)nn7)CC6)nc5)ncc34)nn2C2CCOCC2)C1 [Compound 28, 6-[4-[2-[5-[8-(5-acetyl-1-tetrahydropyran-4-yl-6,7-dihydro-4H-pyrazolo[4,3-c]pyridin-3-yl)-3-isoquinolyl]-2-pyridyl]ethyl]piperazin-1-yl]-N-[4-(3-chloro-4-cyano-phenoxy)cyclohexyl]pyridazine-3-carboxamide] | 
≤ 0.1 | < 1 | CC(=O)N1CCc2c(c(-c3cccc4cc(-c5ccc(CCN6CCN(c7ccc(C(=O)N[C@H]8CC[C@H](Oc9ccc(C#N)c(Cl)c9)CC8)nn7)CC6)nc5)ncc34)nn2C)C1 [Compound 30, 6-[4-[2-[5-[8-(5-acetyl-1-methyl-6,7-dihydro-4H-pyrazolo[4,3-c]pyridin-3-yl)-3-isoquinolyl]-2-pyridyl]ethyl]piperazin-1-yl]-N-[4-(3-chloro-4-cyano-phenoxy)cyclohexyl]pyridazine-3-carboxamide] | 
≤ 0.1 | < 1 | Cn1cc(-c2cc3cccc(-c4cc(C5CCN(CC6CCN(c7ccc(C(=O)N[C@H]8CC[C@H](Oc9ccc(C#N)c(Cl)c9)CC8)nn7)CC6)CC5)c5c(c4)n(C)c(=O)n5C)c3cn2)cn1 [Compound 31, N-[4-(3-chloro-4-cyano-phenoxy)cyclohexyl]-6-[4-[[4-[1,3-dimethyl-6-[3-(1-methylpyrazol-4-yl)-8-isoquinolyl]-2-oxo-benzimidazol-4-yl]-1-piperidyl]methyl]-1-piperidyl]pyridazine-3-carboxamide] | 

Compound | IC50 [1] [nM] | EC50 [2, 3] [nM] | EC50 ([2]; read-out: Average Ternary Complex, treated 1.5 hours, rabbit CBP or p300 antibody detection) [nM]
CC(=O)N1CCc2c(c(N3CCCc4cc(-c5cnn(C)c5)c(C(F)F)cc43)nn2C2CCN(C(=O)CC3CCN(c4ccc(C(=O)N[C@H]5CC[C@H](N(C)c6ccc(C#N)c(Cl)c6)CC5)cc4)CC3)CC2)C1 [Compound 13, 4-[4-[2-[4-[5-acetyl-3-[7-(difluoromethyl)-6-(1-methylpyrazol-4-yl)-3,4-dihydro-2H-quinolin-1-yl]-6,7-dihydro-4H-pyrazolo[4,3-c]pyridin-1-yl]-1-piperidyl]-2-oxo-ethyl]-1-piperidyl]-N-[4-(3-chloro-4-cyano-N-methyl-anilino)cyclohexyl]benzamide] | 0.1 to 1 |  | < 1
